One experiment concerns cotton. Kind of experiment: Preemergent control of plant species. The format is in vivo, Gossypium spp. Particulars: Gossypium hirsutum, pre-emergence, 336 h; 0.25 lb/acre; read-out: percent preemergent control. Put shortly: (§1)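 Seeds sown in agricultural soil in greenhouse beds, then aqueous-emulsion compositions applied uniformly to the bed surface at listed rates. Beds kept two weeks under greenhouse growth conditions with watering. Control expressed as growth reduction versus water-treated beds of the same species.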

In another experiment the test system is rape. Kind of experiment: Preemergent control of plant species. Particulars: Brassica napus, pre-emergence, 336 h; 0.25 lb/acre; read-out: percent preemergent control. The format is in vivo, Brassica napus. An outline of the steps:
as §1

Another experiment relates to soybean. Kind of experiment: Preemergent control of plant species. The format is in vivo, Glycine max. Particulars: Glycine max, pre-emergence, 336 h; 0.25 lb/acre; read-out: percent preemergent control. Put shortly: as §1
The next experiment concerns sugar beet. Kind of experiment: Preemergent control of plant species. The format is in vivo, Beta saccharifera. Particulars: Beta vulgaris, pre-emergence, 336 h; 0.25 lb/acre; read-out: percent preemergent control. Put shortly:
as §1

For another experiment, the system named is jimsonweed. Put plainly: Preemergent control of plant species. Format: in vivo, Datura stramonium. Particulars: Datura stramonium, pre-emergence, 336 h; 0.25 lb/acre; read-out: percent preemergent control. An outline of the steps:
as §1

The next experiment deals with annual morning glory. Kind of experiment: Preemergent control of plant species. Format: in vivo, Ipomoea spp. Particulars: Ipomoea, pre-emergence, 336 h; 0.25 lb/acre; read-out: percent preemergent control. Put shortly:
as §1

The subject of the next experiment is pigweed. Put plainly: Preemergent control of plant species. Format: in vivo, Amaranthus spp. Particulars: Amaranthus retroflexus, pre-emergence, 336 h; 0.25 lb/acre; read-out: percent preemergent control. How it is done: (§2) The seeds of various species of plants were planted in beds of good agricultural soil in a greenhouse. A number of compositions of the present invention, generally in the nature of an aqueous emulsion, were applied at rates listed in the table so as to deposit a predetermined amount of active ingredients uniformly throughout the surface of the bed. Another seed bed was treated only with water to serve as a control. After treatment the seed beds were maintained for two weeks under greenhouse conditions conducive for good plant growth and watered as necessary. Control refers to the reduction in growth compared to the observed results of the same untreated species.

For a further experiment, the system named is velvetleaf. Kind of experiment: Preemergent control of plant species. Particulars: Abutilon theophrasti, pre-emergence, 336 h; 0.25 lb/acre; read-out: percent preemergent control. Format: in vivo, Abutilon theophrasti. An outline of the steps: as §1
Another experiment relates to corn. Kind of experiment: Preemergent control of plant species. Format: in vivo, Zea mays. Particulars: Zea mays, pre-emergence, 336 h; 0.25 lb/acre; read-out: percent preemergent control. Put shortly: as §1
The subject of experiment [1] is rice. Put plainly: Preemergent control of plant species. Format: in vivo, Oryza sativa. Particulars: Oryza sativa, pre-emergence, 336 h; 0.25 lb/acre; read-out: percent preemergent control. An outline of the steps: as §1
A further experiment deals with sorghum. Kind of experiment: Preemergent control of plant species. The format is in vivo, Sorghum vulgare. Particulars: Sorghum, pre-emergence, 336 h; 0.25 lb/acre; read-out: percent preemergent control. An outline of the steps:
as §1

The subject of a further experiment is wheat. Put plainly: Preemergent control of plant species. The format is in vivo, Triticum aestivum. Particulars: Triticum aestivum, pre-emergence, 336 h; 0.25 lb/acre; read-out: percent preemergent control. Put shortly: as §1
The test system of experiment [2] is barnyardgrass. Put plainly: Preemergent control of plant species. The format is in vivo, Echinochloa crusgalli. Particulars: Echinochloa crus-galli, pre-emergence, 336 h; 0.25 lb/acre; read-out: percent preemergent control. An outline of the steps:
as §1

The test system of another experiment is crabgrass. Kind of experiment: Preemergent control of plant species. Particulars: Digitaria sanguinalis, pre-emergence, 336 h; 0.25 lb/acre; read-out: percent preemergent control. Format: in vivo, Digitaria spp. How it is done: as §2
The subject of a further experiment is johnson grass. Put plainly: Preemergent control of plant species. The format is in vivo, Sorghum halepense. Particulars: Sorghum halepense, pre-emergence, 336 h; 0.25 lb/acre; read-out: percent preemergent control. An outline of the steps:
as §1

In the next experiment the test system is wild oats. Kind of experiment: Preemergent control of plant species. Particulars: Avena fatua, pre-emergence, 336 h; 0.25 lb/acre; read-out: percent preemergent control. The format is in vivo. An outline of the steps:
as §1

The next experiment has as its system yellow foxtail. Kind of experiment: Preemergent control of plant species. Format: in vivo, Setaria lutescens. Particulars: Setaria, pre-emergence, 336 h; 0.25 lb/acre; read-out: percent preemergent control. Put shortly: as §1
Experiment [3] concerns yellow nutsedge. Put plainly: Preemergent control of plant species. The format is in vivo, Cyperus esculentus. Particulars: Cyperus, pre-emergence, 336 h; 0.25 lb/acre; read-out: percent preemergent control. An outline of the steps: as §1
In experiment [4] the test system is nitrification of ammonium nitrogen. Put plainly: Suppression of nitrification of ammonium nitrogen in soil. Particulars: 27° C. Put shortly: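 Soil (20 g) moistened to its 1/3 bar tension value, mixed with test chemical and incubated sealed for two weeks at 27° C. Nitrate extracted with ammonium sulfate solution and measured by nitrate-specific ion electrode; value given as % NH4-N remaining.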

The test system of experiment [5] is rice. Kind of experiment: Control of aquatic plant species (paddy water). Particulars: Oryza sativa, 216 h; 2.0 Kg/Ha, nine days; read-out: Percent control. Format: in vivo, Oryza sativa. Put shortly: (§3)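 Plants transplanted at 1-2 inch stage into soil, flooded about 1 inch deep; acetone concentrate of compound injected into paddy water at varied volumes to set concentration. Percent control scored nine days after application.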

Experiment [6] concerns barnyardgrass. Kind of experiment: Control of aquatic plant species (paddy water). The format is in vivo, Echinochloa crusgalli. Particulars: Echinochloa crus-galli, 216 h; 2.0 Kg/Ha, nine days; read-out: Percent control. As to the method:
In testing for such utility, the plant species to be tested were transplanted into 16 oz. containers into about 2 inches of soil when they were in the 1-2 inch stage and then flooded to a depth of about 1 inch. An acetone concentrate of the chemical to be tested was then injected into the paddy water, the volume injected being varied as desired to provide the desired concentration. Percent control was evaluated nine days after application.

A further experiment concerns sprangletop. Put plainly: Control of aquatic plant species (paddy water). The format is in vivo, Leptochloa filiformis. Particulars: Leptochloa filiformis, 216 h; 2.0 Kg/Ha, nine days; read-out: Percent control. An outline of the steps:
as §3

Experiment [7] relates to yellow nutsedge. Kind of experiment: Control of aquatic plant species (paddy water). The format is in vivo, Cyperus esculentus. Particulars: Cyperus, 216 h; 2.0 Kg/Ha, nine days; read-out: Percent control. An outline of the steps: as §3

We go through two molecules from US4740233A, “Substituted 1,2,4-triazolo[1,5-a]-pyrimidine-2-sulfonamides and compositions and methods of controlling undesired vegetation and suppressing the nitrification of ammonium nitrogen in soil” (The Dow Chemical Company, priority 1986, dated 1988).

Structures are written as SMILES.

On to `Cc1nc2nc(S(=O)(=O)Nc3ccccc3C(F)(F)F)nn2c(C)c1C` [Compound 112], for which the plant injury at 280.212 g/ha with cotton is 80%; in the experiment on rape, 85%; with soybean it was 0%; in the experiment with sugar beet, 99%; in the experiment with corn it was 50%; in the experiment with rice [1], 25%. Also, the results for the plant injury at 280.212 g/ha in the experiment on sorghum and in the experiment with wheat were 20% and 0%, respectively. In addition, the pest or weed control at 280.212 g/ha in the experiment on jimsonweed was found to be 0%; in the experiment with annual morning glory, 80%; in the experiment on pigweed, 90%; in the experiment on velvetleaf, 20%; in the experiment with barnyardgrass [2], 0%; with crabgrass it was 97%. In addition, the pest or weed control at 280.212 g/ha in the experiment with johnson grass is 30%; with wild oats, 90%; in the experiment on yellow foxtail, 0%; in the experiment on yellow nutsedge [3], 90%. For the same molecule, the “% NH4-N Remaining After 2 Weeks Incubation” value in experiment [4] (0.06 ppm) was determined as 31%; in experiment [4] (0.25 ppm), 53%; in experiment [4] (1 ppm), 65%; in [4] (4 ppm) it was 72%.
Turning to `COc1cc(C)n2nc(S(=O)(=O)Nc3c(Cl)cccc3Cl)nc2n1` [Compound 178], the plant injury at 280.212 g/ha in the experiment on cotton was 65%; in the experiment on rape, 80%; in the experiment with soybean it was 0%; with sugar beet, 95%; with corn it was 0%; with rice [1] it was 0%. Further, the plant injury at 280.212 g/ha in the experiment with sorghum came to 0%. For the same molecule, the pest or weed control at 280.212 g/ha in the experiment with jimsonweed is 0%; in the experiment with annual morning glory, 10%; with pigweed it was 60%; in the experiment on velvetleaf, 40%; with barnyardgrass [2] it was 25%; with crabgrass it was 0%. Besides, the pest or weed control at 280.212 g/ha in the experiment on johnson grass, in the experiment on yellow foxtail and in the experiment with yellow nutsedge [3] was 0% throughout. Moreover, the pest or weed control at 2000 g/ha in the experiment with rice [5] was 50%; with barnyardgrass [6], 20%; in the experiment with sprangletop it was 0%; in the experiment on yellow nutsedge [7], 90%. Besides, the entries for the “% NH4-N Remaining After 2 Weeks Incubation” value in experiment [4] (0.1 ppm), in experiment [4] (1 ppm) and in [4] (10 ppm) were 0%, 43% and 91%, respectively.
